Measurements published in ChEMBL document CHEMBL5346969 (J Med Chem, 2023).
Calls of active or inactive are those of the source. No cut-off for these calls is given here.

Assays:
MDA-MB-231 [1] = assay: Induction of ferroptosis in human MDA-MB-231 cells with assessed as change in GPX4 protein expression level at 5 to 20 nM incubated for 8 hrs in presence of ferroptosis inhibitor, ferrostatin-1 by Western blot analysis; assay type: functional, cell-based; settings: dose 5-20 nM
[2] = Toxicity in immunodeficient BALB/c mouse xenografted with human MDA-MB-231 cells assessed as morphological changes in heart at 20 mg/kg, ip for 21 days by H and E staining based microscopy; assay type: organism-based; settings: in vivo, 504 h, time 21 day
MDA-MB-231 [3] = assay: Induction of ferroptosis in human MDA-MB-231 cells assessed as induction of lipid peroxidase accumulation at 5 to 20 nM incubated for 8 hrs by C11-BODIPY-581/591 staining based flow cytometry analysis; assay type: functional, cell-based; settings: dose 5-20 nM
MDA-MB-231 [4] = assay: Induction of ferroptosis-mediated morphological changes in human MDA-MB-231 cells assessed as broken outer membrane at 20 nM incubated for 6 hrs by TEM analysis; assay type: functional, cell-based
[5] = Toxicity in immunodeficient BALB/c mouse assessed as change in BUN level at 20 mg/kg, ip for 14 days by biochemical analysis; assay type: organism-based; settings: in vivo, 336 h, time 14 day
MDA-MB-231 [6] = assay: Induction of ferroptosis-mediated morphological changes in human MDA-MB-231 cells assessed as increased membrane density at 20 nM incubated for 6 hrs by TEM analysis; assay type: functional, cell-based
HepG2 = assay: Antiproliferative activity against human HepG2 cells assessed as inhibition of cell viability at 1 uM incubated for 72 hrs by MTT assay; assay type: functional, cell-based
MDA-MB-231 [7] = assay: Induction of ferroptosis in human MDA-MB-231 cells with assessed as decrease in xCT protein expression level at 5 to 20 nM incubated for 8 hrs by Western blot analysis; assay type: functional, cell-based; settings: dose 5-20 nM
MDA-MB-231 [8] = assay: Induction of ferroptosis in human MDA-MB-231 cells with assessed as decrease in intracellular GSH level at 20 nM incubated for 8 hrs by colorimetric assay; assay type: functional, cell-based
MDA-MB-231 [9] = assay: Antitumor activity against human MDA-MB-231 cells xenografted in immunodeficient BALB/c mouse assessed as tumor growth inhibition at 10 mg/kg,ip for 21 days consecutively every day; assay type: functional; settings: MDA-MB-231, 504 h, time 21 day, read-out: TGI
MDA-MB-231 [10] = assay: Induction of ferroptosis in human MDA-MB-231 cells assessed as cell viability incubated for 72 hrs in presence of glutathione by MTT assay; assay type: functional, cell-based; settings: MDA-MB-231, 72 h
[11] = Metabolic stability in human liver microsomes assessed as intrinsic clearance at 1 uM incubated upto 60 mins in presence of NADPH by LC-MS/MS analysis; assay type: ADME, Microsome; settings: read-out: CLH
[12] = Toxicity in immunodeficient BALB/c mouse assessed as change in AST level at 20 mg/kg, ip for 14 days by biochemical analysis; assay type: organism-based; settings: in vivo, 336 h, time 14 day
A549 = assay: Antiproliferative activity against human A549 cells assessed as inhibition of cell viability at 1 uM incubated for 72 hrs by MTT assay; assay type: functional, cell-based
MDA-MB-231 [13] = assay: Induction of ferroptosis-mediated morphological changes in human MDA-MB-231 cells assessed as ruptured mitochondria at 20 nM incubated for 6 hrs by TEM analysis; assay type: functional, cell-based
MCF7 = assay: Antiproliferative activity against human MCF7 cells assessed as inhibition of cell viability at 1 uM incubated for 72 hrs by MTT assay; assay type: functional, cell-based
[14] = Toxicity in immunodeficient BALB/c mouse xenografted with human MDA-MB-231 cells assessed as morphological changes in kidney at 20 mg/kg, ip for 21 days by H and E staining based microscopy; assay type: organism-based; settings: in vivo, 504 h, time 21 day
MDA-MB-468 = assay: Antiproliferative activity against human MDA-MB-468 cells assessed as inhibition of cell viability incubated for 72 hrs by CCK-8 assay; assay type: functional, cell-based; settings: MDA-MB-468, 72 h
BT-549 [15] = assay: Antiproliferative activity against human BT-549 cells assessed as inhibition of cell viability at 1 uM incubated for 72 hrs by MTT assay; assay type: functional, cell-based
MDA-MB-231 [16] = assay: Induction of ferroptosis in human MDA-MB-231 cells with assessed as increase in ACSL4 protein expression level at 5 to 20 nM incubated for 8 hrs by Western blot analysis; assay type: functional, cell-based; settings: dose 5-20 nM
MDA-MB-231 [17] = assay: Induction of ferroptosis in human MDA-MB-231 cells assessed as cell viability at 1 uM incubated for 72 hrs in presence of apoptosis inhibitor, Z-VAD-FMK by MTT assay; assay type: functional, cell-based
MDA-MB-231 [18] = assay: Induction of ferroptosis in human MDA-MB-231 cells assessed as increase in intracellular Fe2+ level at 5 to 20 nM incubated for 8 hrs by FerroOrange staining based confocal laser microscopy; assay type: functional, cell-based; settings: dose 5-20 nM
MDA-MB-231 [19] = assay: Antitumor activity against human MDA-MB-231 cells xenografted in immunodeficient BALB/c mouse assessed as tumor growth inhibition at 20 mg/kg,ip for 21 days consecutively every day; assay type: functional; settings: MDA-MB-231, 504 h, time 21 day, read-out: TGI
[20] = molecular target: T1, Phospholipid hydroperoxide glutathione peroxidase GPX4 (Homo sapiens) (UniProt P36969); assay: Inhibition of GPX4 (unknown origin) at 1 uM incubated for 1 hrs in presence of glutathione and glutathione reductase by microplate reader analysis
T1 sequence (whole entry): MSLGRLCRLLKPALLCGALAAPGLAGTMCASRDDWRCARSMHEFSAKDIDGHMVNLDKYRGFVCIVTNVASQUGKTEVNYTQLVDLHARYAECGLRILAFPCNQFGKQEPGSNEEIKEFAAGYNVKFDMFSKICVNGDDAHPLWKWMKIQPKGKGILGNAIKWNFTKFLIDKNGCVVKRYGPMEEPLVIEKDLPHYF

BT-549 [21] = assay: Antiproliferative activity against human BT-549 cells assessed as inhibition of cell viability incubated for 72 hrs by MTT assay; assay type: functional, cell-based; settings: BT-549, 72 h
MDA-MB-231 [22] = assay: Induction of ferroptosis in human MDA-MB-231 cells assessed as cell viability incubated for 72 hrs in presence of autophagy inhibitor, 3-MA by MTT assay; assay type: functional, cell-based; settings: MDA-MB-231, 72 h
MDA-MB-231 [23] = assay: Induction of ferroptosis in human MDA-MB-231 cells assessed as cell viability at 1 uM incubated for 72 hrs in presence of N-acetyl-L-cysteine by MTT assay; assay type: functional, cell-based
MDA-MB-231 [24] = assay: Antiproliferative activity against human MDA-MB-231 cells assessed as inhibition of cell viability incubated for 72 hrs by MTT assay; assay type: functional, cell-based; settings: MDA-MB-231, 72 h
MDA-MB-231 [25] = assay: Induction of ferroptosis-mediated morphological changes in human MDA-MB-231 cells assessed as smaller mitochondrial volume at 20 nM incubated for 6 hrs by TEM analysis; assay type: functional, cell-based
MDA-MB-231 [26] = assay: Induction of ferroptosis in human MDA-MB-231 cells assessed as cell viability incubated for 72 hrs in presence of N-acetyl-L-cysteine by MTT assay; assay type: functional, cell-based; settings: MDA-MB-231, 72 h
MDA-MB-231 [27] = assay: Induction of ferroptosis in human MDA-MB-231 cells with assessed as change in GPX4 mRNA expression level at 5 to 20 nM incubated for 8 hrs by qRT-PCR analysis; assay type: functional, cell-based; settings: dose 5-20 nM
MDA-MB-231 [28] = assay: Induction of ferroptosis in human MDA-MB-231 cells with assessed as change in ACSL4 protein expression level at 5 to 20 nM incubated for 8 hrs in presence of ferroptosis inhibitor, ferrostatin-1 by Western blot analysis; assay type: functional, cell-based; settings: dose 5-20 nM
MDA-MB-231 [29] = assay: Induction of ferroptosis-mediated morphological changes in human MDA-MB-231 cells assessed as round and vacuolated cells at 20 nM incubated for 6 hrs by TEM analysis; assay type: functional, cell-based

| Structure (SMILES) | Activity (MDA-MB-231 [1]) | Activity [2] | Activity (MDA-MB-231 [3]) | Activity (MDA-MB-231 [4]) | Activity [5] | Activity (MDA-MB-231 [6]) | Activity (HepG2) | Activity (MDA-MB-231 [7]) | Activity (MDA-MB-231 [8]) | inhibition in vivo at 10 mg/kg (MDA-MB-231 [9]) | IC50 (MDA-MB-231 [10]) | microsomal CLint at 1 µM [11] | Activity [12] | Activity (A549) | Activity (MDA-MB-231 [13]) | Activity (MCF7) | Activity [14] | IC50 (MDA-MB-468) | Activity (BT-549 [15]) | Activity (MDA-MB-231 [16]) | other results |
| --- | --- | --- | --- | --- | --- | --- | --- | --- | --- | --- | --- | --- | --- | --- | --- | --- | --- | --- | --- | --- | --- |
| COc1cc(N(C(=O)CBr)c2ccc3c(c2)OCCO3)cc(OC)c1F | inactive | Non-Toxic | Dose-Dependent Effect | Active | Toxic | Active | inactive | inactive | Active | 47.9% | > 20000 nM | 1740 µL/min/mg | Toxic | inactive | Active | inactive | Non-Toxic | 12 nM | Active | Active | Activity (MDA-MB-231 [17]): inactive; Activity (MDA-MB-231 [18]): Active; inhibition in vivo at 20 mg/kg (MDA-MB-231 [19]): 71.7%; inhibition [20]: 97.4%; IC50 (BT-549 [21]): 34 nM; IC50 (MDA-MB-231 [22]): 18 nM; Activity (MDA-MB-231 [23]): Active; IC50 (MDA-MB-231 [24]): 8 nM; Activity (MDA-MB-231 [25]): Active; IC50 (MDA-MB-231 [26]): > 20000 nM; Activity (MDA-MB-231 [27]): inactive; Activity (MDA-MB-231 [28]): inactive; Activity (MDA-MB-231 [29]): Active |
| COc1cc(N(C(=O)CCl)c2ccc3c(c2)OCCO3)cc(OC)c1F | inactive | Non-Toxic | Dose-Dependent Effect | Active | Toxic | Active | inactive | inactive | Active | 73.1% | > 20000 nM | 416 µL/min/mg | Toxic | inactive | Active | Active | Non-Toxic | 10 nM | Active | Active | Activity (MDA-MB-231 [17]): inactive; Activity (MDA-MB-231 [18]): Active; inhibition in vivo at 20 mg/kg (MDA-MB-231 [19]): 81%; inhibition [20]: 98.8%; IC50 (BT-549 [21]): 75 nM; IC50 (MDA-MB-231 [22]): 18 nM; Activity (MDA-MB-231 [23]): Active; IC50 (MDA-MB-231 [24]): 12 nM; Activity (MDA-MB-231 [25]): Active; IC50 (MDA-MB-231 [26]): > 20000 nM; Activity (MDA-MB-231 [27]): inactive; Activity (MDA-MB-231 [28]): inactive; Activity (MDA-MB-231 [29]): Active |
